Experimental data reported in patent US5070210A, “Novel ketenimines as intermediates for insecticides” (ICI Americas Inc., priority 1990, dated 1991).

Legend:
Assay type in all cases: in vivo
[1] = system: Maize weevil [Sitophilus Zeamais (Motschulsky)]; assay: Maize weevil insecticidal test; settings: adult weevils, percent in solution; 48 hours
Summary of the method: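 LC50, in percent of compound in solution, was derived from dosage-mortality curves after 48 h at about 25 °C. Ten adult weevils per container fed on four corn seeds briefly immersed in acetone:water (50:50) solutions of up to 0.01% and dried.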

[2] = system: Beet Armyworm (Spodoptera exigua); assay: Beet armyworm insecticidal test; settings: second-instar larvae, percent in solution; five days
Summary of the method: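 Five second-instar larvae per dish fed on dried sugar beet leaves previously dipped 2–3 s in acetone-water (1:1) test solutions up to 0.1%. Kept at high humidity, with deaths counted after five days; LC50 as % in solution via dosage-mortality curves.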

[3] = system: Tobacco Budworm [Heliothis virescens (Fabricius)] larvae; assay: Tobacco budworm contact test; settings: second-instar larvae, percent in solution, 5 days
Summary of the method: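 Cotton cotyledons dipped 2–3 s in compound in 50-50 acetone-water, dried, then infested with 5 second-instar larvae and held 5 days at high humidity. Mortality scored; LC50 from dosage-mortality curves, expressed as percent compound in solution, concentrations from 0.1% downward.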

[4] = system: Housefly [Musca domestica]; assay: Housefly insecticidal test; settings: μg per 25 female flies; mortality after 48 hours
Summary of the method: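 Dry-film exposure of 25 female houseflies per cage, 48 h; LC50 as μg per 25 flies.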

[5] = system: Cabbage Looper [Trichoplusia ni (Hubner)]; assay: Cabbage looper insecticidal test; settings: second-instar larvae, percent in solution; 3-5 days
Summary of the method: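 Steps: dilute compound in 50-50 acetone-water from 0.1% downward; immerse cotyledon pieces 2-3 s and dry; place in humid petri dishes with five second-instar larvae; record mortality at 3-5 days. Dosage-mortality curves yield LC50 as percent in solution.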

[6] = system: Rice water weevil [Lissorhoptrus oryzophilus (Kuschel)]; assay: Rice water weevil insecticidal test; settings: topical, μg per weevil; 48 hours
Summary of the method: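 Female adult weevils (ten per dose) received 1 μl acetone droplets topically on the ventral abdomen, then were held with rice foliage and wet cotton at about 25 °C. Mortality scored at 48 h; LC50 in μg per weevil from dosage-mortality curves, top dose 2.5 μg per weevil.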

[7] = system: Tobacco Budworm [Heliothis virescens (Fabricius)] eggs; assay: Tobacco budworm egg test; settings: 2-day old eggs, percent in solution
Summary of the method: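 Mortality of dipped eggs served as read-out, recorded after untreated controls hatched and began feeding. Treatments used acetone solutions from 0.1% downward, with eggs incubated at 78° F; LC50 is expressed as percent of compound in the solution.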

[8] = system: Aster Leafhopper [Macrosteles fascifrens (Stal)]; assay: Aster leafhopper insecticidal test; settings: adults/nymphs, percent in solution; 48 hours
Summary of the method: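 LC50 values, given as percent of test compound in the dip solution, were derived from dosage-mortality curves over concentrations from 0.05% downward. Mortality was counted 48 hours after ten leafhopper adults/nymphs were enclosed on treated seedlings. The seedlings were oats, about 10 cm tall, briefly dipped in 50-50 acetone-water.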

[9] = system: Black Bean Aphid [Aphis fabae (Scop.)]; assay: Black bean aphid insecticidal test; settings: percent of test compound in sprayed solution; 48 hours
Experimental: The compounds in Tables 1 and 2 above were tested for insecticidal activity using the following testing procedures. LC50 values, based on the results of these tests and calculated according to dosage-mortality curves, are expressed in Table 3.
Black Bean Aphid [Aphis fabae (Scop.)]:
Nasturtium plants (Tropaeolum sp.) approximately 5 cm tall, were transplanted into sandy loam soil in small cups and infested with 25-50 black bean aphids of mixed ages. Twenty-four hours later they were sprayed to the point of runoff with 50-50 acetone-water solutions of the test compounds. Treated plants were held in the greenhouse and mortality was recorded after 48 hours. Test concentrations ranged from 0.05% downward. The LC-50 value is expressed below in Table 3 under the heading "BBA" in terms of percent of the test compound in the sprayed solution.

## CC(C)C(=Nc1ccc(Cl)cc1)OCc1cccc(Oc2ccc(Cl)cc2)c1 [Compound 269]
[1]
  LC50, MW: > 0.01%
[2]
  LC50, BAW: 0.0024%
[3]
  LC50, TBW, C (TBW-C): 0.001%
[4]
  LC50, HF: 25 µg
[5]
  LC50, CL: 0.0003%
[6]
  LC50, RWW: > 2.5 µg
[7]
  LC50, TBW, E (TBW-E): 0.04%
[8]
  LC50, LH: 0.003%

## CC(C)C(=Nc1ccc(F)c(Br)c1)OCc1ccc(F)c(Oc2ccc(F)cc2)c1 [Compound 273]
[1]
  LC50, MW: 0.004%
[2]
  LC50, BAW: 0.0017%
[3]
  LC50, TBW, C (TBW-C): 0.00025%
[4]
  LC50, HF: 7 µg
[5]
  LC50, CL: 0.000018%
[6]
  LC50, RWW: > 2.5 µg
[7]
  LC50, TBW, E (TBW-E): 0.015%
[8]
  LC50, LH: 0.0003%

## CC(C)C(=Nc1ccc(F)c(C(F)(F)F)c1)OCc1ccc(F)c(Oc2ccc(F)cc2)c1 [Compound 277]
[1]
  LC50, MW: > 0.01%
[2]
  LC50, BAW: 0.005%
[3]
  LC50, TBW, C (TBW-C): 0.0005%
[4]
  LC50, HF: 4 µg
[5]
  LC50, CL: 0.00001%
[6]
  LC50, RWW: 0.065 µg
[7]
  LC50, TBW, E (TBW-E): 0.013%
[8]
  LC50, LH: 0.0003%

## CC(C)C(=Nc1ccc(F)c(F)c1)OCc1ccc(F)c(Oc2ccc(F)cc2)c1 [Compound 278]
[1]
  LC50, MW: 0.0063%
[2]
  LC50, BAW: 0.0012%
[3]
  LC50, TBW, C (TBW-C): 0.00026%
[4]
  LC50, HF: 3 µg
[5]
  LC50, CL: 0.00002%
[6]
  LC50, RWW: 0.085 µg
[7]
  LC50, TBW, E (TBW-E): 0.008%
[8]
  LC50, LH: 0.0003%

## CC(C)C(=Nc1ccc(OC(F)(F)F)cc1)OCc1ccc(F)c(Oc2ccc(F)cc2)c1 [Compound 286]
[1]
  LC50, MW: 0.0039%
[2]
  LC50, BAW: 0.0004%
[3]
  LC50, TBW, C (TBW-C): 0.00017%
[4]
  LC50, HF: 34 µg
[5]
  LC50, CL: 0.000024%
[6]
  LC50, RWW: 0.09 µg
[7]
  LC50, TBW, E (TBW-E): 0.005%
[8]
  LC50, LH: 0.0006%

## CC(C)C(=Nc1ccc(OC(F)(F)F)cc1)OCc1ccc(F)c(Oc2ccc(Cl)cc2)c1 [Compound 323]
[1]
  LC50, MW: 0.0075%
[2]
  LC50, BAW: 0.0025%
[3]
  LC50, TBW, C (TBW-C): 0.00065%
[4]
  LC50, HF: > 100 µg
[5]
  LC50, CL: 0.0006%
[6]
  LC50, RWW: 0.16 µg
[7]
  LC50, TBW, E (TBW-E): 0.045%
[8]
  LC50, LH: 0.05%

## CC(C)C(=Nc1ccc(OC(F)(F)F)c(Cl)c1)OCc1cc(F)cc(Oc2ccc(F)cc2)c1 [Compound 328]
[4]
  LC50, HF: > 100 µg
[5]
  LC50, CL: 0.03%
[9]
  LC50, BBA: > 0.05%
[7]
  LC50, TBW, E (TBW-E): > 0.1%

## CC(C)C(=Nc1ccc(F)c(Cl)c1F)OCc1cccc(Oc2ccc(F)cc2)c1 [Compound 352]
[1]
  LC50, MW: 0.0075%
[2]
  LC50, BAW: > 0.1%
[3]
  LC50, TBW, C (TBW-C): 0.0004%
[4]
  LC50, HF: 4.6 µg
[5]
  LC50, CL: 0.000065%
[6]
  LC50, RWW: > 2.5 µg
[7]
  LC50, TBW, E (TBW-E): > 0.1%
[8]
  LC50, LH: 0.0004%
